This experiment deals with T1, NIK (Homo sapiens, UniProt Q99558).
T1 construct: Both assays utilize a truncated form of NIK containing only the catalytic domain; made in house; host or cells: baculovirus expression system (insect cells implied)
T1 sequence (Q99558 400-655 limits assumed): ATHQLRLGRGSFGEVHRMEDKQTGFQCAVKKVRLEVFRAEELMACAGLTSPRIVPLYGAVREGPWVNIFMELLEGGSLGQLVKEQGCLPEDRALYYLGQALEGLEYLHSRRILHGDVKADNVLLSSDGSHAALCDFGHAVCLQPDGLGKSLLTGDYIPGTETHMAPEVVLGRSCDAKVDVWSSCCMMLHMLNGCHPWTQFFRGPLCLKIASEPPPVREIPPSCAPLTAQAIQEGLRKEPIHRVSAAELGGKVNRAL
Briefly: homogenous time resolved fluorescence (HTRF) assay for NIK Ki measurement. Format: biochemical. The conditions noted are these: truncated NIK (catalytic domain only), autophosphorylation; 10 nM enzyme; 20, 100, 200 or 500 μM ATP; room temperature, 2 hours; read-out: Ki activity in the homogenous time resolved fluorescence (HTRF) assay for NIK. The procedure: Two formats of biochemical assays are implemented: (1) chemiluminescent (CL) assay for NIK IC50 determination; (2) homogenous time resolved fluorescence (HTRF) assay for NIK Ki measurement. […] The NIK proteins are purified with baculovirus expression system and further biotinylated with N-hydroxysuccinamide biotin ester (Sigma). […] The reaction mixtures are then immobilized on a Streptavidin-coated plate (Pierce). […] For the HTRF assay, 10 nM of enzyme are incubated with compounds in the presence of 20, 100, 200, or 500 μM of ATP in a buffer with 20 mM of Hepes pH7.5, 20 mM of MgCl2, 0.2% of Tween 20 and 1 mM of DTT at room temperature for 2 hours.
A general note: TR-FRET usually uses a lanthanide donor and a delayed reading to cut background.
Broadly, the Ki is a measure of affinity in units of concentration, obtained from inhibition or displacement. Regarding `COCCOc1cnc(N)nc1-c1cn(CCOC)c2ccc(C#CC3(O)CCCC3)cc12` [Example 234, 1-((3-(2-Amino-5-(2-methoxyethoxy)-4-pyrimidinyl)-1-(2-methoxyethyl)-1H-indol-5-yl)ethynyl)cyclopentanol], the Ki was under 1000 nM.
As for `COc1ccc(C#CC(C)(O)c2nccs2)cc1Nc1nc(N)ncc1Cl` (centres unmarked) [Example 143, 4-(3-((2-amino-5-chloro-4-pyrimidinyl)amino)-4-(methyloxy)phenyl)-2-(1,3-thiazol-2-yl)-3-butyn-2-ol], the Ki is under 1000 nM.
To `Nc1nc(N2CCc3ccc(C#CC4(O)CCCC4)cc32)c2nc[nH]c2n1` [Example 72, 1-((1-(2-amino-9H-purin-6-yl)-2,3-dihydro-1H-indol-6-yl)ethynyl)cyclopentanol] belongs under 1000 nM; to `COCCOc1cnc(N)nc1-c1c[nH]c2c(F)cc(C#CC3(O)CCCC3)cc12` [Example 229, 1-((3-(2-Amino-5-(2-methoxyethoxy)-4-pyrimidinyl)-7-fluoro-1H-indol-5-yl)ethynyl)cyclopentanol], under 1000 nM; to `C[C@](O)(C#Cc1ccc2c(c1)N(c1ccnc(N)n1)CC2)c1nccs1` [Example 297, (2S)-4-(1-(2-amino-4-pyrimidinyl)-2,3-dihydro-1H-indol-6-yl)-2-(1,3-thiazol-2-yl)-3-butyn-2-ol], under 1000 nM.
Take `OC1(C#Cc2ccc3ccn(-c4cc(Nc5ccccc5)ncn4)c3c2)CCCC1` [Example 257, 1-((1-(6-(phenylamino)-4-pyrimidinyl)-1H-indol-6-yl)ethynyl)cyclopentanol]: the inhibition constant (Ki) was in the range of 1000 to 30000 nM.
`Cc1cc(C(C)(O)C#Cc2ccc3c(c2)N(c2nc(N)ncc2Cl)CC3(C)C)no1` (centres unmarked) [Example 3, 4-(1-(2-amino-5-chloropyrimidin-4-yl)-3,3-dimethylindolin-6-yl)-2-(5-methylisoxazol-3-yl)but-3-yn-2-ol]: the Ki is under 1000 nM.
To `C[C@](O)(C#Cc1ccc2c(c1)N(c1nc(N)ncc1Cl)C[C@@]21CCOC1)c1nccs1` (stereo in doubt) [Example 199, (2S)-4-((3R*)-1′-(2-Amino-5-chloro-4-pyrimidinyl)-1′,2′,4,5-tetrahydrospiro[furan-3,3′-indol]-6′-yl)-2-(1,3-thiazol-2-yl)-3-butyn-2-ol] belongs 1000 to 30000 nM.
For `CN1CC[C@](O)(C#Cc2ccc3c(c2)N(c2nc(N)ncc2Cl)CC3(C)C)C1=O` [Example 44, (3S)-3-((1-(2-amino-5-chloro-4-pyrimidinyl)-3,3-dimethyl-2,3-dihydro-1H-indol-6-yl)ethynyl)-3-hydroxy-1-methyl-2-pyrrolidinone] the value was under 1000 nM; for `CC(C)(C)C(C)(O)C#Cc1ccc2c(c1)N(c1ccnc(N)n1)CC2` (centres unmarked) [Example 268, 1-(1-(2-Amino-4-pyrimidinyl)-2,3-dihydro-1H-indol-6-yl)-3,4,4-trimethyl-1-pentyn-3-ol], 1000 to 30000 nM; for `Nc1ncc2c(n1)-c1c([nH]c3ccc(C#CC4(O)CCCC4)cc13)C(=O)NC2` [Example 243, 2-Amino-11-((1-hydroxycyclopentyl)ethynyl)-5,8-dihydropyrimido[4′,′:5,6]azepino[3,4-b]indol-7(6H)-one], under 1000 nM.
Take `CN1CCC2(C1)CN(c1nc(N)ncc1Cl)c1cc(C#C[C@](C)(O)c3nccs3)ccc12` (single isomer, unassigned) [Example 194, (2S)-4-((3R*)-1-(2-Amino-5-chloro-4-pyrimidinyl)-1′-methyl-1,2-dihydrospiro[indole-3,3′-pyrrolidin]-6-yl)-2-(1,3-thiazol-2-yl)-3-butyn-2-ol]: the Ki lay within 1000 to 30000 nM.
Consider `CCc1csc(C(C)(O)C#Cc2ccc3c(c2)N(c2nc(N)ncc2Cl)CC3)c1` (centres unmarked) [Example 22, 4-(1-(2-amino-5-chloropyrimidin-4-yl)indolin-6-yl)-2-(4-ethylthiophen-2-yl)but-3-yn-2-ol], for which the Ki is under 1000 nM.
For `CC(O)(C#Cc1ccc2c(c1)N(c1ccnc(N)n1)CC2)c1ccc(Cl)s1` (centres unmarked) [Example 281, 4-(1-(2-Amino-4-pyrimidinyl)-2,3-dihydro-1H-indol-6-yl)-2-(5-chloro-2-thienyl)-3-butyn-2-ol] the value was under 1000 nM; for `Cc1cc([C@@](C)(O)C#Cc2ccc3c(c2)N(c2nc(N)ncc2Cl)CC3)no1` (single isomer, unassigned) [Example 24], 1000 to 30000 nM; for `CC(O)(C#Cc1ccc2ccn(-c3ccncc3)c2c1)c1nccs1` (centres unmarked) [Example 299, 4-(1-(4-Pyridinyl)-1H-indol-6-yl)-2-(1,3-thiazol-2-yl)-3-butyn-2-ol], under 1000 nM.
To `COCCOc1cnc(N)nc1-c1c[nH]c2ccc(C#CC3(O)CCOCC3)cc12` [Example 226, 4-((3-(2-Amino-5-(2-methoxyethoxy)-4-pyrimidinyl)-1H-indol-5-yl)ethynyl)tetrahydro-2H-pyran-4-ol] belongs 1000 to 30000 nM; to `CC(C)(O)C#Cc1ccc2c(c1)N(c1ccnc(N)n1)CC2` [Example 271, 4-(1-(2-Amino-4-pyrimidinyl)-2,3-dihydro-1H-indol-6-yl)-2-methyl-3-butyn-2-ol], under 1000 nM.
For the molecule `CC(O)(C#Cc1ccc2c(c1)N(c1ncns1)CC2(C)C)c1nccs1` (centres unmarked) [Example 12, 4-(3,3-dimethyl-1-(1,2,4-thiadiazol-5-yl)indolin-6-yl)-2-(thiazol-2-yl)but-3-yn-2-ol], the inhibition constant (Ki) was under 1000 nM.
For `CC(O)(C#Cc1ccc2c(c1)N(c1nc(N)ncc1Cl)CC2)c1ccccn1` (centres unmarked) [Example 308, 4-(1-(2-Amino-5-chloro-4-pyrimidinyl)-2,3-dihydro-1H-indol-6-yl)-2-(2-pyridinyl)-3-butyn-2-ol] the value was under 1000 nM; for `CC(O)(C#Cc1ccc(F)c(Nc2nc(N)ncc2Cl)c1)c1nccs1` (centres unmarked) [Example 166, 4-(3-(2-Amino-5-chloropyrimidin-4-ylamino)-4-fluorophenyl)-2-(thiazol-2-yl)but-3-yn-2-ol], under 1000 nM; for `CC(O)(C#Cc1ccc2c(c1)N(c1ccnc(N)n1)CC2)c1cccnc1` (centres unmarked) [Example 290, 4-(1-(2-Amino-4-pyrimidinyl)-2,3-dihydro-1H-indol-6-yl)-2-(3-pyridinyl)-3-butyn-2-ol], under 1000 nM.
Regarding `Cc1cc([C@@](C)(O)C#Cc2ccc(F)c(Nc3nc(N)ncc3Cl)c2)no1` [Example 177, (S)-4-(3-(2-amino-5-chloropyrimidin-4-ylamino)-4-fluorophenyl)-2-(5-methylisoxazol-3-yl)but-3-yn-2-ol], the inhibitory constant (Ki) lay within 1000 to 30000 nM.
To `Cn1cc(-c2ccncn2)c2cc(C#CC(C)(O)c3cscn3)ccc21` (centres unmarked) [Example 118, 4-(1-methyl-3-(pyrimidin-4-yl)-1H-indol-5-yl)-2-(thiazol-4-yl)but-3-yn-2-ol] belongs under 1000 nM; to `CC1(CCC#N)CN(c2nc(N)ncc2F)c2cc(C#CC3(O)CCCC3)ccc21` (centres unmarked) [Example 67, 3-(1-(2-amino-5-fluoro-4-pyrimidinyl)-6-((1-hydroxycyclopentyl)ethynyl)-3-methyl-2,3-dihydro-1H-indol-3-yl)propanenitrile], under 1000 nM.
For `COc1ccc(C#CC(C)(O)c2cc(C)no2)cc1Nc1nc(N)ncc1Cl` (centres unmarked) [Example 144, 4-(3-((2-amino-5-chloro-4-pyrimidinyl)amino)-4-(methyloxy)phenyl)-2-(3-methyl-5-isoxazolyl)-3-butyn-2-ol] the value was under 1000 nM.

The values above are taken from patent US20110086834A1, “ALKYNYL ALCOHOLS AS KINASE INHIBITORS” (AMGEN INC., priority 2008, published 2011).
